ChEMBL document CHEMBL1153128, “Synthesis of a hydrolytically stable, fluorescent-labeled ATP analog as a tool for probing adenylyl cyclases” (Bioorg Med Chem Lett, 2010)

Molecular target: T1, Calmodulin-sensitive adenylate cyclase (Bacillus anthracis, UniProt P40136)
T1 sequence (P40136 whole entry): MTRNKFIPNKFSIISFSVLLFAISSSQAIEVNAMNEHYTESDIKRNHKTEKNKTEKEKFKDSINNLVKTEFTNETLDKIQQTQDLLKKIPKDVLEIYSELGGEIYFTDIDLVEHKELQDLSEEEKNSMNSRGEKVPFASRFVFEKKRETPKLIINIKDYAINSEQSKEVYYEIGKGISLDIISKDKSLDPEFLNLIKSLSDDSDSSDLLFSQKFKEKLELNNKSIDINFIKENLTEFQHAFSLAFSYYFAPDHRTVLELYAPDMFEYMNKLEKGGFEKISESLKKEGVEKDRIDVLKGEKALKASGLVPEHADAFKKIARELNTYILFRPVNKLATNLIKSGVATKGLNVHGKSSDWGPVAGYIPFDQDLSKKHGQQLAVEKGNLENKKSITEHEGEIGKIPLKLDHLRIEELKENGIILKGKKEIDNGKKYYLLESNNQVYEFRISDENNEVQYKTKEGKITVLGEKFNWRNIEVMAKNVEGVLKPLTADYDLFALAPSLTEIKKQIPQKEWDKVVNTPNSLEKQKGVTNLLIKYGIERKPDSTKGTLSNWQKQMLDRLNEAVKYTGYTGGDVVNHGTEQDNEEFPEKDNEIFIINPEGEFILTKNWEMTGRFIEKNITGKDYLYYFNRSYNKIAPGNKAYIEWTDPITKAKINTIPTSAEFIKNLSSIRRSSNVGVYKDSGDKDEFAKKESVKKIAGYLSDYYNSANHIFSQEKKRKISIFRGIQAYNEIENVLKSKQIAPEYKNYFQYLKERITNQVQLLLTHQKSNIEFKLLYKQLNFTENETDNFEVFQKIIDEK
Test: Inhibition of Bacillus anthracis edema factor catalytic domain by radiometric assay

| SMILES | Ki [nM] |
| --- | --- |
| CNc1ccccc1C(=O)O[C@H]1[C@@H](O)[C@H](n2cnc3c(N)ncnc32)O[C@@H]1CO[P@@](=O)(O)O[P@](=O)(O)OP(=O)(O)O | 980 |
| CNc1ccccc1C(=O)O[C@@H]1[C@H](O)[C@@H](COP(=O)(O)OP(=O)(O)OP(=O)(O)O)O[C@H]1n1ccc(N)nc1=O | 100 |
| CNc1ccccc1C(=O)N[C@@H]1[C@H](O)[C@@H](COP(=O)(O)OP(=O)(O)C(Cl)(Cl)P(=O)(O)O)O[C@H]1n1cnc2c(N)ncnc21 | 8980 |
